The record followed here is ChEMBL document CHEMBL6121001, “Benzimidazole analogues active against adult Schistosoma mansoni: SAR analyses, In vivo efficacy in mice, and preliminary mechanistic studies as potential inhibitors of hemozoin formation” (Eur J Med Chem, 2025).

This data set in a line: Apparent permeability of compound at 1 mM incubated for 4 hrs by PAMPA based LC-MS/MS analysis. In kind it is ADME.

For `Oc1ncccc1CN1CCC(Nc2nc3ccccc3n2Cc2ccc(C(F)(F)F)cc2)CC1`, the Papp at 4 h, 1000 µM is 1.8 nm/s. As to `FC(F)(F)c1ccc(Cn2c(NC3CCN(Cc4ccccc4)CC3)nc3ccccc32)cc1`, the Papp at 4 h, 1000 µM was found to be 180 nm/s. In the case of `Oc1ccccc1CN1CCC(Nc2nc3ccccc3n2Cc2ccc(C(F)(F)F)cc2)CC1` it was 230 nm/s.
